Tests used:
[1] = tested on: wild-type female C57BL/6 mice; test: Lieber-DeCarli ethanol diet mouse model of alcoholic liver disease; assay type: in vivo; conditions: for liver histology, hematoxylin and eosin (H+E): formalin-fixed liver sections; for hepatic lipid accumulation, oil red staining: frozen liver sections; for ALT: plasma; for ALT / Total bile acids / Hepatic TGs / Plasma LPS / FA (fecal albumin): mean (SEM); for Total bile acids: LC-MS; for FA (fecal albumin): feces at 7.5 weeks
Excerpt: Age-matched wild-type female C57BL/6 mice (Charles River, Wilmington, Mass.), 8-9 weeks old at the initiation of the study, were used.
The Lieber-DeCarli ethanol diet was originally developed by Charles Lieber and Leonore DeCarli in 1963. This diet allows for the prolonged exposure of ethanol in a rodent model and allows for modification to calories provided by ethanol. […] The caloric intake from ethanol was 0% on day 1, 10% on days 2 and 3, 20% on days 4 and 5, 30% from day 6 until the end of 6 weeks, and 36% for the last 2 weeks, for a total in-life time of eight weeks. The ethanol-fed mice also received one bolus dose of 33% v/v ethanol at 5 g/Kg on the last in-life day. The control diet contained an isocaloric substitution of isomaltose for the ethanol. […] In the prevention portions of the study, including with the control diet, seladelpar was added throughout the entire study period; in the intervention portion of the study, seladelpar was added only for the fifth through eighth weeks. Fresh feces were collected at 7.5 weeks. All mice were sacrificed after eight weeks; the ethanol-fed mice eight hours after the ethanol bolus. At sacrifice, body and liver weight were recorded; and blood/plasma, liver, gallbladder, small and large intestine (wall and contents) and cecum were harvested. Analyses included plasma ALT—to measure […]; hepatic TGs; plasma lipopolysaccharides (LPS)—to measure the extent of bacterial leakage from the intestine into the blood; fecal albumin (FA)—to measure the extent of albumin leakage from the blood into the intestine (feces); and total bile acids, measured by liquid chromatography-mass spectrometry (LC-MS) generally according to the method described in Hartmann et al., “Modulation of the Intestinal Bile Acid/Farnesoid X Receptor/Fibroblast Growth Factor 15 Axis Improves Alcoholic Liver Disease in Mice”, Hepatology, 67(6), 2150-2166 (2018).
The study results are given in the table below: standard errors of the means are in parentheses, n denotes the number of mice measured, and ANOVA denotes the significance value of an ANOVA analysis between groups 3, 4, and 5:
Formalin-fixed liver sections were stained for histological examination with hematoxylin and eosin (H+E).
Frozen liver sections were cut and stained with oil red 0 for hepatic lipid accumulation analysis.

[2] = tested on: subjects with diagnosed alcoholic liver disease (acute alcoholic hepatitis); test: Clinical (intravenous), subjects with acute alcoholic hepatitis; assay type: in vivo, human; conditions: intravenous 2-100 mg/day for up to 30 days
Protocol: At each assessment blood is drawn; and a standard metabolic panel and complete blood count are performed. Blood is analyzed for bilirubin, creatinine, prothrombin time (International Normalized Ratio—INR), TGs, liver transaminases, high sensitivity C-reactive protein (hsCRP), interleukin-18, and TNF-α.

[3] = tested on: atherogenic diet-fed obese diabetic (Alms1 mutant (foz/foz)) mice; conditions: foz/foz mice on atherogenic diet; cited from earlier work
[4] = tested on: subjects with diagnosed alcoholic liver disease (alcoholic fatty liver); test: Clinical (oral), subjects with alcoholic fatty liver; assay type: in vivo, human; conditions: oral 2-100 mg/day for 6 months
Protocol: Subjects are permitted their usual other medications (e.g. antidiabetic medications such as metformin or […]) but not glitazones, PPAR agonists, OCA, or similar medications. […] At each visit, after a 12-hour fast, blood is drawn and urine collected; and a standard metabolic panel, complete blood count, and standard urinalysis are performed. Blood is analyzed for bilirubin, creatinine, prothrombin time (International Normalized Ratio—INR), TGs, and liver transaminases. The subjects also maintain health diaries, which are reviewed at each visit.

PPARα = biological target: T1, PPARα (Homo sapiens, UniProt Q07869); test: Specificity compared with PPARα
T1 sequence (Q07869 1-468): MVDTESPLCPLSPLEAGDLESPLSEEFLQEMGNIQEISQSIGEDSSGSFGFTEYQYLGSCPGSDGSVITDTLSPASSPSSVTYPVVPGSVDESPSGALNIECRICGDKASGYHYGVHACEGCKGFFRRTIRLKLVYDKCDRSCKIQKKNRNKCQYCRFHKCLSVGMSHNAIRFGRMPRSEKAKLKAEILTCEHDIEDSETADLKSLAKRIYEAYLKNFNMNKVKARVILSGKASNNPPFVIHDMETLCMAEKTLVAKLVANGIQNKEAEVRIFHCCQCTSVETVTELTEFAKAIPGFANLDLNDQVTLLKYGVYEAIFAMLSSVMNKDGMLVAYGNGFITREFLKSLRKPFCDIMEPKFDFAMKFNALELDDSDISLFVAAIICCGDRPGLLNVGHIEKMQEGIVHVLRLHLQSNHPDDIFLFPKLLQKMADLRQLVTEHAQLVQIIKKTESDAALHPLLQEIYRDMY
Excerpt: It is specific (>600-fold and>2500-fold compared with PPARα and peroxisome proliferator-activated receptor-γreceptors). PPARδ activation stimulates fatty acid oxidation and utilization, improves plasma lipid and lipoprotein metabolism, glucose utilization, and mitochondrial respiration, and preserves stem cell homeostasis.

[5] = alcohol diet (group 3 vs groups 4 and 5, prevention and intervention)
[6] = alcohol diet, untreated group 3 vs seladelpar groups 4 and 5, ANOVA <0.001
[7] = group 2: control diet with seladelpar prevention, 10 mg/Kg/day oral, 8 weeks

specificity for PPARδ compared with PPARα (PPARα): > 600 fold
Structure (SMILES): CCO[C@H](COc1ccc(C(F)(F)F)cc1)CSc1ccc(OCC(=O)O)c(C)c1 [seladelpar, [4-({(2R)-2-ethoxy-3-[4-(trifluoromethyl)phenoxy]propyl}sulfanyl)-2-methylphenoxy]acetic acid]
liver histology, hematoxylin and eosin (H+E) [1, 5]: significant reduction of steatosis and restoration of a more normal architecture
hepatic lipid accumulation, oil red staining [1, 5]: significant reduction of stainable lipid droplets
change in serum ALT ([1]; alcohol diet, untreated group 3 vs seladelpar groups 4 and 5 (prevention and intervention), ANOVA <0.001): significant reductions (improvements)
change in serum LPS ([1]; alcohol diet, untreated group 3 vs seladelpar groups 4 and 5, ANOVA 0.034): significant reductions (improvements)
change in hepatic TGs [1, 6]: significant reductions (improvements)
change in total bile acids [1, 6]: significant reductions (improvements)
liver histology, hematoxylin and eosin (H+E) ([1]; control diet (groups 1 vs 2)): no significant change
hepatic lipid accumulation, oil red staining ([1]; control diet (groups 1 vs 2)): no significant change
effect on ALT, hepatic TGs, LPS, fecal albumin and total bile acids ([1]; control diet groups, seladelpar prevention (group 2 vs 1)): does not significantly affect
ALT ([1]; group 2: control diet with seladelpar prevention, 10 mg/Kg/day oral in diet for 8 weeks): 20.8 (3.5) U/L
Total bile acids [1, 7]: 14.2 (0.6) μmol/100 g body weight
Hepatic TGs [1, 7]: 18.9 (1.8) mg/g
Plasma LPS [1, 7]: 787 (108) ng/mL
FA (fecal albumin) ([1]; group 2: control diet with seladelpar prevention, 10 mg/Kg/day oral): 95 (12) ng/mg
ALT ([1]; group 4: ethanol diet with seladelpar prevention, 10 mg/Kg/day oral in diet for 8 weeks, untreated ethanol group 3: 83.3 (16.7)): 37.8 (4.1) U/L
Total bile acids ([1]; group 4: ethanol diet with seladelpar prevention, 10 mg/Kg/day oral, 8 weeks, group 3: 23.7 (1.6)): 16.5 (1.1) μmol/100 g body weight
Hepatic TGs ([1]; group 4: ethanol diet with seladelpar prevention, 10 mg/Kg/day oral, 8 weeks, group 3: 29.6 (2.0)): 21.8 (1.3) mg/g
Plasma LPS ([1]; group 4: ethanol diet with seladelpar prevention, 10 mg/Kg/day oral, 8 weeks, group 3: 1064 (204)): 723 (66) ng/mL
FA (fecal albumin) ([1]; group 4: ethanol diet with seladelpar prevention, 10 mg/Kg/day oral, group 3: 135 (15)): 98 (8) ng/mg
FA (fecal albumin) ([1]; group 5: ethanol diet with seladelpar intervention, 10 mg/Kg/day oral from week 5, group 3: 135 (15)): 112 (9) ng/mg
ALT ([1]; group 5: ethanol diet with seladelpar intervention, 10 mg/Kg/day oral in diet, weeks 5-8, untreated ethanol group 3: 83.3 (16.7)): 30.9 (4.1) U/L
Total bile acids ([1]; group 5: ethanol diet with seladelpar intervention, 10 mg/Kg/day oral, weeks 5-8, group 3: 23.7 (1.6)): 16.0 (1.1) μmol/100 g body weight
Hepatic TGs ([1]; group 5: ethanol diet with seladelpar intervention, 10 mg/Kg/day oral, weeks 5-8, group 3: 29.6 (2.0)): 20.5 (1.3) mg/g
Plasma LPS ([1]; group 5: ethanol diet with seladelpar intervention, 10 mg/Kg/day oral, weeks 5-8, group 3: 1064 (204)): 634 (59) ng/mL
improvement in disease (reduction in liver transaminases, hsCRP, interleukin-18, TNF-α, Maddrey's discriminant function, MELD score) [2]: dose-related improvement
NASH pathology [3]: improves NASH pathology (reducing hepatic steatosis and inflammation, and improving fibrosis)
improvement in disease (reductions in MRI-PDFF, TGs, liver transaminases) [4]: dose-related improvement
